Laboratory results reported in the NIST ThermoML archive (doi:10.1021/acs.jced.7b00192).
± gives the expanded uncertainty stated by the source.

Experiment: molar heat capacity at constant pressure; mn = molality of the nth substance listed, in mol/kg
Conditions: 10000 kPa, Liquid, Large sample (1 g) DSC

[K+].[OH-] [potassium hydroxide] + O
molar heat capacity at constant pressure [J/K/mol]
Conditions	m1 = 0.201	m1 = 0.5009	m1 = 0.999	m1 = 2.012	m1 = 3	m1 = 4.505	m1 = 6.002
325 K	74.45 ± 1.2	73.81 ± 1.1	72.8 ± 1.1	71.28 ± 1.1	70.15 ± 1.1	69.18 ± 1.1	68.41 ± 1.1
337.4 K	74.58 ± 1.2	73.96 ± 1.1	73.05 ± 1.1	71.64 ± 1.1	70.55 ± 1.1	69.5 ± 1.1	68.84 ± 1.1
349.7 K	74.72 ± 1.2	74.09 ± 1.1	–	–	–	–	69.19 ± 1.1
349.8 K	–	–	73.21 ± 1.1	71.81 ± 1.1	70.8 ± 1.1	69.82 ± 1.1	–
362.1 K	74.89 ± 1.2	74.29 ± 1.2	73.45 ± 1.1	72.13 ± 1.1	71.12 ± 1.1	70.2 ± 1.1	69.62 ± 1.1
374.5 K	75.11 ± 1.2	74.49 ± 1.2	73.67 ± 1.1	72.43 ± 1.1	71.42 ± 1.1	70.5 ± 1.1	69.98 ± 1.1
386.8 K	75.37 ± 1.2	74.76 ± 1.2	73.96 ± 1.1	72.65 ± 1.1	71.69 ± 1.1	70.78 ± 1.1	70.31 ± 1.1
399.2 K	75.69 ± 1.2	75.06 ± 1.2	74.27 ± 1.2	72.97 ± 1.1	72.03 ± 1.1	71.12 ± 1.1	70.62 ± 1.1
411.5 K	–	–	–	–	–	–	70.86 ± 1.1
411.6 K	76.08 ± 1.2	75.46 ± 1.2	74.6 ± 1.2	73.21 ± 1.1	72.28 ± 1.1	71.37 ± 1.1	–
423.9 K	76.54 ± 1.2	75.88 ± 1.2	74.91 ± 1.2	73.59 ± 1.1	72.62 ± 1.1	71.69 ± 1.1	71.13 ± 1.1
436.3 K	77.1 ± 1.2	76.36 ± 1.2	75.36 ± 1.2	73.96 ± 1.1	72.91 ± 1.1	71.95 ± 1.1	71.43 ± 1.1
448.6 K	77.74 ± 1.2	–	–	–	–	–	71.78 ± 1.1
448.7 K	–	76.95 ± 1.2	–	–	–	–	–
